Measured values: paper PMC7395068, “The evolution of strategies to minimise the risk of human drug-induced liver injury (DILI) in drug discovery and development” (Archives of Toxicology, 2020)
Read-outs that look alike come from different tables or passages of the source.

Tests used:
[1] = cited from earlier work; for DILI severity category (Chen et al. [2016]): LTKB DILIrank category; for DILI severity category (Chen et al. [2016]) / DILI severity category (Chen 2016): ref Chen et al. 2016; for DILI severity category (Chen 2016): human DILI classification, LTKB DILIrank
PHH = conditions: cited from earlier work; for PHH/100xCmax, Proctor (2017) / PHH/100uM, Proctor (2017): 2D PHH, ATP, ref Proctor et al. 2017; for PHH/100xCmax, Proctor (2017): IC50 < 100 × Cmax.tot; for PHH/100uM, Proctor (2017): IC50 threshold 100 µM; for PHH ATP <100uM: In vitro Assay, ref Proctor 2017
hLiMTs [2] = conditions: cited from earlier work; for hLiMTs ATP <100uM: In vitro Assay, ref Proctor 2017; for hLiMTs/100xCmax, Proctor (2017) / hLiMTs/100uM, Proctor (2017): ATP, ref Proctor et al. 2017; for hLiMTs/100xCmax, Proctor (2017): IC50 < 100 × Cmax.tot; for hLiMTs/100uM, Proctor (2017): IC50 threshold 100 µM
[3] = system: HepG2 C3A spheroid, BSEP, Glu/Gal in HepG2 cells, bioactivation; conditions: cited from earlier work; for Bayesian Machine Learning DILI prediction, Williams (2019): Bayesian modeling, ref Williams et al. 2019; for Bayesian Machine Learning: ref Williams 2019
[4] = read-out: Human plasma Cmax; total plasma Cmax.tot, median of 9 literature references; cited from earlier work
[5] = cited from earlier work; for Assigned DILI category: Chen et al. 2016 or literature alignment, ref Chen et al. 2016
hLiMTs [6] = test: Combined HCI (HCS) and cellular ATP 3D assay in hLiMTs; conditions: for DILI prediction hLiMTs (HCS-MEC): Microtissue model structural based (HCI), combined HCS and ATP, MEC < 25 × Cmax.tot cut-off
HepaRG spheroids = test: Combined HCI (HCS) and cellular ATP 3D assay in HepaRG spheroids; conditions: for DILI prediction HepaRG spheroids (HCS-MEC): Microtissue model structural based (HCI), combined HCS and ATP, MEC < 25 × Cmax.tot cut-off
HepG2 cells [7] = conditions: In vitro Assay; ref O'Brien 2006; cited from earlier work
HepG2 cells [8] = conditions: In vitro Assay; ref Persson 2013; cited from earlier work
HepG2 cells [9] = conditions: In vitro Assay; ref Tolosa 2012; cited from earlier work
human hepatocytes = conditions: In vitro Assay; ref Xu 2008; cited from earlier work
[10] = system: THLE or HepG2 cells, isolated mitochondria, BSEP; conditions: In vitro Assay; ref Aleo 2019; cited from earlier work
PHH spheroids = conditions: In vitro Assay; ref Vorrink 2018; cited from earlier work
[11] = system: HepG2 cells, primary human hepatocytes; conditions: In vitro Assay; ref Garside 2014; cited from earlier work
[12] = ref Chen 2011; cited from earlier work

Cc1c(-c2ccccc2)oc2c(C(=O)OCCN3CCCCC3)cccc2c1=O [flavoxate]
127 µM: AC50 (hLiMTs [6]; Homo sapiens, read-out: ATP endpoint AC50)
1790 nM: Cmax [4]
111 µM: minimal effective concentration (hLiMTs [6]; Homo sapiens, read-out: ATP endpoint MEC)
No: DILI severity category (Chen et al. [2016]) [1] | DILI severity category (Chen 2016) [1] | DILI severity category ([1]; human DILI severity, ref Chen et al.)
-VE: DILI +VE (5-8), DILI -VE (-4) ([1]; ref Chen 2016) | PHH/100xCmax, Proctor (2017) (PHH) | PHH/100uM, Proctor (2017) (PHH) | PHH ATP <100uM (PHH) | hLiMTs ATP <100uM (hLiMTs [2]) | hLiMTs/100xCmax, Proctor (2017) (hLiMTs [2]) | hLiMTs/100uM, Proctor (2017) (hLiMTs [2]) | Bayesian Machine Learning DILI prediction, Williams (2019) [3] | Bayesian Machine Learning [3] | In vivo DILI ([5]; ref Proctor 2017) | In vivo DILI ([5]; ref Williams 2019) | DILI prediction hLiMTs (HCS-MEC) (hLiMTs [6]) | DILI prediction HepaRG spheroids (HCS-MEC) (HepaRG spheroids)
vNo-DILI-Concern: DILI severity category ([1]; ref Chen 2016)
1: Assigned DILI category [5]
-ve: hLiMTs <25x Avg Cmax ATP (hLiMTs [6]; hLiMTs, ATP endpoint, cut-off <25x Avg Cmax) | hLiMTs <100x Avg Cmaxu ATP (hLiMTs [6]; hLiMTs, ATP endpoint, cut-off <100x Avg Cmaxu) | hLiMTs <25x Avg Cmax HCS (hLiMTs [6]; hLiMTs, HCS endpoints, cut-off <25x Avg Cmax) | hLiMTs <100x Avg Cmaxu HCS (hLiMTs [6]; hLiMTs, HCS endpoints, cut-off <100x Avg Cmaxu) | hLiMTs <25x Avg Cmax All (hLiMTs [6]; hLiMTs, all endpoints (ATP and HCS), cut-off <25x Avg Cmax) | hLiMTs Cmax max All (hLiMTs [6]; hLiMTs, all endpoints, Cmax max used) | hLiMTs Cmax min All (hLiMTs [6]; hLiMTs, all endpoints, Cmax min used) | hLiMTs <10 uM All (hLiMTs [6]; hLiMTs, all endpoints, cut-off <10 uM) | hLiMTs <100x Avg Cmaxu All (hLiMTs [6]; hLiMTs, all endpoints, cut-off <100x Avg Cmaxu) | HepaRG <25x Avg Cmax ATP (HepaRG spheroids; HepaRG, ATP endpoint, cut-off <25x Avg Cmax) | HepaRG <100x Avg Cmaxu ATP (HepaRG spheroids; HepaRG, ATP endpoint, cut-off <100x Avg Cmaxu) | HepaRG <25x Avg Cmax HCS (HepaRG spheroids; HepaRG, HCS endpoints, cut-off <25x Avg Cmax) | HepaRG <100x Avg Cmaxu HCS (HepaRG spheroids; HepaRG, HCS endpoints, cut-off <100x Avg Cmaxu) | HepaRG <25x Avg Cmax All (HepaRG spheroids; HepaRG, all endpoints (ATP and HCS), cut-off <25x Avg Cmax) | HepaRG Cmax max All (HepaRG spheroids; HepaRG, all endpoints, Cmax max used) | HepaRG Cmax min All (HepaRG spheroids; HepaRG, all endpoints, Cmax min used) | HepaRG <10 uM All (HepaRG spheroids; HepaRG, all endpoints, cut-off <10 uM) | HepaRG <100x Avg Cmaxu All (HepaRG spheroids; HepaRG, all endpoints, cut-off <100x Avg Cmaxu)

CC(C)[N+](C)(CCOC(=O)C1c2ccccc2Oc2ccccc21)C(C)C [propantheline bromide]
No: DILI severity category (Chen et al. [2016]) [1] | DILI severity category (Chen 2016) [1]
-VE: PHH/100xCmax, Proctor (2017) (PHH) | PHH/100uM, Proctor (2017) (PHH) | hLiMTs/100xCmax, Proctor (2017) (hLiMTs [2]) | hLiMTs/100uM, Proctor (2017) (hLiMTs [2]) | Bayesian Machine Learning DILI prediction, Williams (2019) [3] | DILI prediction hLiMTs (HCS-MEC) (hLiMTs [6]) | DILI prediction HepaRG spheroids (HCS-MEC) (HepaRG spheroids)
1: Assigned DILI category [5]
440 nM: Cmax [4]

Cc1cn([C@H]2C=C[C@@H](CO)O2)c(=O)[nH]c1=O [stavudine]
8: DILI Score (FDA) (1-8) [12]
vMost-DILI-Concern: DILI severity category ([1]; ref Chen 2016)
-VE: Structural based (HCI) (HepG2 cells [7]) | Cluser analysis (HepG2 cells [8]) | Structural based (HCI) (HepG2 cells [9]) | Structural based (HCI) (human hepatocytes) | Partition Hybrid HRM Score [10] | Ro2 Hybrid HRM Score [10] | PHH ATP <100uM (PHH) | hLiMTs ATP <100uM (hLiMTs [2]) | hLiMTs ATP <20 x Cmax (PHH spheroids) | Cluster 1-6 +VE Assay [11]
+VE: DILI +VE (5-8), DILI -VE (-4) ([1]; ref Chen 2016) | Structural based (HCI) (HepG2 cells [8]) | Bayesian Machine Learning ([3]; In vitro Assay) | In vivo DILI ([5]; […]) | In vivo DILI ([5]; ref Aleo 2019) | In vivo DILI ([5]; ref Garside 2014) | In vivo DILI ([5]; ref O'Brien 2006) | In vivo DILI ([5]; ref Persson 2013) | In vivo DILI ([5]; ref Proctor 2017) | In vivo DILI ([5]; ref Tolosa 2012) | In vivo DILI ([5]; ref Vorrink 2018) | In vivo DILI ([5]; ref Williams 2019) | In vivo DILI ([5]; ref Xu 2008)
